This assay deals with T1, SOAT (Homo sapiens, UniProt Q3KNW5).
T1 construct: The full-length open reading frames of NTCP, ASBT, and SOAT were cloned; expressed in transfected cells; host or cells: Flp-In T-REX HEK293 (SOAT-HEK293), tetracycline-induced
T1 sequence (Q3KNW5 1-377): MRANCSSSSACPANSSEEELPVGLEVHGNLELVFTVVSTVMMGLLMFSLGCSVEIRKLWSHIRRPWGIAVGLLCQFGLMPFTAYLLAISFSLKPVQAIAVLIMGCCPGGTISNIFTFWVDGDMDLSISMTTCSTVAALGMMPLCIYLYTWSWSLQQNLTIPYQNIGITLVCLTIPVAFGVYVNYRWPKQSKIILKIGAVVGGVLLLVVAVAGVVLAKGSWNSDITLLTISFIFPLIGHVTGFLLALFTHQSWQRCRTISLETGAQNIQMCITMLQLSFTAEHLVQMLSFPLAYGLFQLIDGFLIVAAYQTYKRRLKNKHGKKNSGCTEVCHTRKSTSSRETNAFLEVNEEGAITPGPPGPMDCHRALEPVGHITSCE
The assay is described as follows: Transport kinetics (concentration-dependent uptake) in SOAT-HEK293 cells. Format: cell-based. To be noted: uptake via SOAT, 1 min, 37°C. The method, then:
Cells were washed three times with phosphate buffered saline (PBS) (137 mM NaCl, 2.7 mM KCl, 1.5 mM KH2PO4, 7.3 mM Na2HPO4, pH 7.4, 37°C). Afterward, cells were preincubated at 37°C with sodium transport buffer (containing 142.9 mM NaCl, 4.7 mM KCl, 1.2 mM MgSO4, 1.2 mM KH2PO4, 1.8 mM CaCl2, and 20 mM HEPES (all chemicals from Sigma-Aldrich), adjusted to pH 7.4), or with choline transport buffer (equimolar substitution of sodium chloride with choline chloride). Uptake experiments were initiated by replacing the preincubation buffer by 500 μL transport buffer containing the radiolabeled test compound and were performed at 37°C. Transport was terminated by removing the transport buffer and washing five-times with ice-cold PBS. Cell monolayers were lysed in 1 N NaOH with 0.1% SDS and the cell-associated radioactivity was determined by liquid scintillation counting. Protein content of individual wells was determined by Lowry assay as reported before ([Geyer et al., 2007]).
FIGURE 2 NTCP, ASBT, and SOAT transport kinetics. Concentration-dependent uptake was analyzed in NTCP-HEK293, ASBT-HEK293, and SOAT-HEK293 cells for the indicated substrates at increasing substrate concentrations. […] Uptake was analyzed for 1 min at 37°C. Afterward, the medium was removed and each cell monolayer was washed and processed to determine the protein content and cell-associated radioactivity. […]

With `C[C@H](CCC(=O)NCCS(=O)(=O)O)[C@H]1CC[C@H]2[C@@H]3CC[C@@H]4C[C@H](O)CC[C@]4(C)[C@H]3CC[C@]12C` [Taurolithocholic acid], the “Apparent K m” value came to 19.3 ± 6.8 µM and the V max is 617 ± 57 pmol/mg protein/min.

Source of the values: article PMC8165160, “Substrate Specificities and Inhibition Pattern of the Solute Carrier Family 10 Members NTCP, ASBT and SOAT” (Frontiers in Molecular Biosciences, 2021).
